Experimental data from ChEMBL document CHEMBL3817825, “Synthesis and biological evaluation of Schiff base-linked imidazolyl naphthalimides as novel potential anti-MRSA agents” (2016).
Converted amounts (≈) assume the structure as drawn.

Assays:
[1] = system: Staphylococcus aureus; test: Antibacterial activity against methicillin-resistant Staphylococcus aureus N315 after 24 hrs by two fold serial dilution method; format: functional; details: N315, 24 h
[2] = system: Bacillus subtilis; test: Antibacterial activity against Bacillus subtilis ATCC6633 after 24 hrs by two fold serial dilution method; format: functional; details: ATCC6633, 24 h
[3] = system: Pseudomonas aeruginosa; test: Antibacterial activity against Pseudomonas aeruginosa ATCC27853 after 24 hrs by two fold serial dilution method; format: functional; details: ATCC27853, 24 h
[4] = system: Escherichia coli; test: Antibacterial activity against Escherichia coli JM109 after 24 hrs by two fold serial dilution method; format: functional; details: JM109, 24 h
[5] = system: Staphylococcus aureus; test: Antibacterial activity against Staphylococcus aureus ATCC25923 after 24 hrs by two fold serial dilution method; format: functional; details: ATCC25923, 24 h
[6] = system: Cyberlindnera jadinii; test: Antifungal activity against Candida utilis ATCC9950 after 24 hrs by two fold serial dilution method; format: functional; details: Williopsis jadinii, ATCC9950, 24 h
[7] = system: Saccharomyces cerevisiae; test: Antifungal activity against Beer yeast ATCC9763 after 24 hrs by two fold serial dilution method; format: functional; details: ATCC9763, 24 h
[8] = system: Salmonella typhi; test: Antibacterial activity against Bacillus typhi after 24 hrs by two fold serial dilution method; format: functional, Salmonella enterica subsp. enterica serovar Typhi; details: Salmonella enterica
[9] = system: Aspergillus flavus; test: Antifungal activity against Aspergillus flavus ATCC204304 after 24 hrs by two fold serial dilution method; format: functional; details: ATCC204304, 24 h
[10] = system: Bacillus; test: Antibacterial activity against Bacillus proteus ATCC13315 after 24 hrs by two fold serial dilution method; format: functional; details: ATCC13315, 24 h
[11] = system: Escherichia coli; test: Antibacterial activity against Escherichia coli DH52 after 24 hrs by two fold serial dilution method; format: functional; details: DH52, 24 h
[12] = system: Micrococcus luteus; test: Antibacterial activity against Micrococcus luteus ATCC4698 after 24 hrs by two fold serial dilution method; format: functional; details: ATCC4698, 24 h
[13] = system: Shigella dysenteriae; test: Antibacterial activity against Shigella dysenteriae after 24 hrs by two fold serial dilution method; format: functional
[14] = system: Candida albicans; test: Antifungal activity against Candida albicans ATCC76615 after 24 hrs by two fold serial dilution method; format: functional; details: ATCC76615, 24 h
[15] = system: Candida; test: Antifungal activity against Candida mycoderma ATCC10231 after 24 hrs by two fold serial dilution method; format: functional; details: ATCC10231, 24 h

| SMILES | MIC [1] | MIC [2] | MIC [3] | MIC [4] | MIC [5] | MIC [6] | MIC [7] | MIC [8] | MIC [9] | MIC [10] | MIC [11] | MIC [12] | MIC [13] | MIC [14] | MIC [15] |
| --- | --- | --- | --- | --- | --- | --- | --- | --- | --- | --- | --- | --- | --- | --- | --- |
| CCCCc1nc(Cl)c(/C=N/N2C(=O)c3cccc4c(N5CCOCC5)ccc(c34)C2=O)n1Cc1ccc(F)cc1 | 440 µM (≈ 253 µg/mL) | 440 µM (≈ 253 µg/mL) | 890 µM (≈ 511 µg/mL) | 440 µM (≈ 253 µg/mL) | 890 µM (≈ 511 µg/mL) | 440 µM (≈ 253 µg/mL) | 890 µM (≈ 511 µg/mL) | 0.44 µM (≈ 0.253 µg/mL) | 890 µM (≈ 511 µg/mL) | 440 µM (≈ 253 µg/mL) | 890 µM (≈ 511 µg/mL) | 440 µM (≈ 253 µg/mL) | 0.89 µM (≈ 0.511 µg/mL) | 440 µM (≈ 253 µg/mL) | 440 µM (≈ 253 µg/mL) |
| CCCCc1nc(Cl)c(/C=N/N2C(=O)c3cccc4c(N5CCOCC5)ccc(c34)C2=O)n1Cc1ccc(Cl)c(Cl)c1 | 370 µM (≈ 231 µg/mL) | 370 µM (≈ 231 µg/mL) | 740 µM (≈ 462 µg/mL) | 370 µM (≈ 231 µg/mL) | 740 µM (≈ 462 µg/mL) | 370 µM (≈ 231 µg/mL) | 180 µM (≈ 112 µg/mL) | 0.74 µM (≈ 0.462 µg/mL) | 740 µM (≈ 462 µg/mL) | 180 µM (≈ 112 µg/mL) | 180 µM (≈ 112 µg/mL) | 370 µM (≈ 231 µg/mL) | 0.74 µM (≈ 0.462 µg/mL) | 370 µM (≈ 231 µg/mL) | 370 µM (≈ 231 µg/mL) |
| CCCCc1nc(Cl)c(/C=N/N2C(=O)c3cccc4c(Br)ccc(c34)C2=O)[nH]1 | 560 µM (≈ 257 µg/mL) | 560 µM (≈ 257 µg/mL) | 560 µM (≈ 257 µg/mL) | 1110 µM (≈ 510 µg/mL) | 1110 µM (≈ 510 µg/mL) | 1110 µM (≈ 510 µg/mL) | 140 µM (≈ 64.4 µg/mL) | 1.11 µM (≈ 0.51 µg/mL) | 1110 µM (≈ 510 µg/mL) | 1110 µM (≈ 510 µg/mL) | 1110 µM (≈ 510 µg/mL) | 1110 µM (≈ 510 µg/mL) | 0.56 µM (≈ 0.257 µg/mL) | 1110 µM (≈ 510 µg/mL) | 1110 µM (≈ 510 µg/mL) |
| CCCCc1nc(Cl)c(/C=N/N2C(=O)c3cccc4c(N5CCOCC5)ccc(c34)C2=O)n1Cc1ccccc1F | 440 µM (≈ 253 µg/mL) | 440 µM (≈ 253 µg/mL) | 220 µM (≈ 126 µg/mL) | 110 µM (≈ 63.1 µg/mL) | 220 µM (≈ 126 µg/mL) | 440 µM (≈ 253 µg/mL) | 440 µM (≈ 253 µg/mL) | 0.44 µM (≈ 0.253 µg/mL) | 440 µM (≈ 253 µg/mL) | 440 µM (≈ 253 µg/mL) | 440 µM (≈ 253 µg/mL) | 220 µM (≈ 126 µg/mL) | 0.44 µM (≈ 0.253 µg/mL) | 440 µM (≈ 253 µg/mL) | 440 µM (≈ 253 µg/mL) |
| CCCCc1nc(Cl)c(/C=N/N2C(=O)c3cccc4c(N5CCOCC5)ccc(c34)C2=O)n1Cc1ccc(OC)cc1 | 440 µM (≈ 258 µg/mL) | 440 µM (≈ 258 µg/mL) | 440 µM (≈ 258 µg/mL) | 870 µM (≈ 510 µg/mL) | 440 µM (≈ 258 µg/mL) | 430 µM (≈ 252 µg/mL) | 220 µM (≈ 129 µg/mL) | 0.44 µM (≈ 0.258 µg/mL) | 430 µM (≈ 252 µg/mL) | 220 µM (≈ 129 µg/mL) | 440 µM (≈ 258 µg/mL) | 870 µM (≈ 510 µg/mL) | 0.44 µM (≈ 0.258 µg/mL) | 430 µM (≈ 252 µg/mL) | 870 µM (≈ 510 µg/mL) |
| CCCCc1nc(Cl)c(/C=N/N2C(=O)c3cccc4c(N5CCOCC5)ccc(c34)C2=O)n1Cc1ccc(Cl)cc1Cl | 370 µM (≈ 231 µg/mL) | 370 µM (≈ 231 µg/mL) | 180 µM (≈ 112 µg/mL) | 370 µM (≈ 231 µg/mL) | 180 µM (≈ 112 µg/mL) | 180 µM (≈ 112 µg/mL) | 370 µM (≈ 231 µg/mL) | 0.37 µM (≈ 0.231 µg/mL) | 180 µM (≈ 112 µg/mL) | 370 µM (≈ 231 µg/mL) | 740 µM (≈ 462 µg/mL) | 180 µM (≈ 112 µg/mL) | 0.37 µM (≈ 0.231 µg/mL) | 370 µM (≈ 231 µg/mL) | 370 µM (≈ 231 µg/mL) |
| CCn1cc(C(=O)O)c(=O)c2cc(F)c(N3CCNCC3)cc21 [NORFLOXACIN] | 20 µM (≈ 6.39 µg/mL) | 10 µM (≈ 3.19 µg/mL) | 50 µM (≈ 16 µg/mL) | 3 µM (≈ 0.958 µg/mL) | 6 µM (≈ 1.92 µg/mL) |  |  |  |  | 20 µM (≈ 6.39 µg/mL) | 3 µM (≈ 0.958 µg/mL) | 6 µM (≈ 1.92 µg/mL) | 0.05 µM (≈ 0.016 µg/mL) |  |  |
| CCCCc1nc(Cl)c(/C=N/N2C(=O)c3cccc4c(N5CCOCC5)ccc(c34)C2=O)n1Cc1ccc(C)cc1 | 450 µM (≈ 257 µg/mL) | 890 µM (≈ 507 µg/mL) | 450 µM (≈ 257 µg/mL) | 60 µM (≈ 34.2 µg/mL) | 220 µM (≈ 125 µg/mL) | 110 µM (≈ 62.7 µg/mL) | 450 µM (≈ 257 µg/mL) | 0.45 µM (≈ 0.257 µg/mL) | 900 µM (≈ 513 µg/mL) | 450 µM (≈ 257 µg/mL) | 890 µM (≈ 507 µg/mL) | 450 µM (≈ 257 µg/mL) | 0.11 µM (≈ 0.0627 µg/mL) | 450 µM (≈ 257 µg/mL) | 900 µM (≈ 513 µg/mL) |
| CCCCc1nc(Cl)c(/C=N/N2C(=O)c3cccc4c(N5CCOCC5)ccc(c34)C2=O)n1Cc1cccc(F)c1 | 440 µM (≈ 253 µg/mL) | 440 µM (≈ 253 µg/mL) | 440 µM (≈ 253 µg/mL) | 440 µM (≈ 253 µg/mL) | 220 µM (≈ 126 µg/mL) | 440 µM (≈ 253 µg/mL) | 440 µM (≈ 253 µg/mL) | 0.89 µM (≈ 0.511 µg/mL) | 440 µM (≈ 253 µg/mL) | 220 µM (≈ 126 µg/mL) | 440 µM (≈ 253 µg/mL) | 440 µM (≈ 253 µg/mL) | 0.89 µM (≈ 0.511 µg/mL) | 440 µM (≈ 253 µg/mL) | 440 µM (≈ 253 µg/mL) |
| OC(Cn1cncn1)(Cn1cncn1)c1ccc(F)cc1F [FLUCONAZOLE] |  |  |  |  |  | 30 µM (≈ 9.19 µg/mL) | 50 µM (≈ 15.3 µg/mL) |  | 840 µM (≈ 257 µg/mL) |  |  |  |  | 3 µM (≈ 0.919 µg/mL) | 10 µM (≈ 3.06 µg/mL) |
